Source: patent US20230233531A1, “USE OF NON-STEROIDAL ANTI-INFLAMMATORY COMPOUNDS FOR TREATMENT OF INFLAMMATION” (University of Houston System, priority 2022, published 2023)
“Also recorded” adds a separate entry of the source.

Experiments:
[1] = test system: carrageenan-induced paw inflammation; test: Carrageenan-induced paw inflammation/edema in BABL-c mice; assay type: in vivo; conditions: for inflammatory edema (paw volume quantitation): 50 mg/kg intramuscular 10 min before carrageenan, vs saline control; for inflammatory edema (paw volume quantitation) / time course of paw volume: 50 mg/kg; for paw thickness: 50 mg/kg intramuscular, vs control group; for time course of paw volume: 0-6 h after carrageenan
Method: (§1) Animals. The adult CD-1 mice (18-20 g) and BABL-c (18-20 g) were purchase from Envigo Plus vendor (USA) and used in this study. The mice were hosted under standard condition (23±2° C.; 12 h/12 h light/dark cycle; 50% humidity). The protocol was approved by Institutional Animal Care and Use Committee (IACUC). And all procedures were conducted according to IACUC. After all the experiments, the animals were euthanized with CO2 under the procedure of IACUC. Injections of compounds. The synthesized compounds to be tested were injected 10 mins before carrageenan injection. All the compounds were freshly prepared. All the compounds were dissolved in PBS and totally dissolved after ultrasonic. The compounds were injected with 26-G sterile needle via intramuscular injection. After immobilizing the mice, the hind limb was immobilized with the little finger and the then, the injection site was disinfected with 70% alcohol, and the needle was inserted into the root of the hindlimb at an angle of 45 degrees. The needle plug was withdrawn to make sure there was no injection into the blood vessel. If there was no blood return, the compounds were injected slowly. The mice were place back to their cages for 10 mins before the next step. Procedures for establishing of paw inflammation. The procedure of establishing inflammation mice model and the procedure of measurement of paw edema were describe as follow: 1% lambda-carrageenan was freshly prepared before injection. Carrageenan powder was first dissolved in cold PBS and vortexed for 5 times. Then the mixture was placed in 50° C. water for 5 mins until all the milky white matrix dissolved completely. […]*3⁄8 (0.45 mm*10 mm) sterile needle was used for injection. Carrageenan was subcutaneous injected slowly into the middle of the mice left hind paw. The time of injection Carrageenan was count as the start time point (0 h) and the paw swelling size was recorded as paw thickness and paw edema volume. Establishing of Carrageenan-induced Inflammatory Paw Edema Mice Model. […] The carrageenan-induced paw edema inflammation is a well-defined model of acute inflammation. It is widely and commonly used for evaluating the effectiveness of inhibitors of prostaglandin synthesis. Carrageenan is a complex of polysaccharides that functions in stimulating the expressions of COX-2 and mPGES-1 to release the proinflammatory mediator, PGE2, and its downstream factors, such as bradykinin, histamine, tachykinins, reactive oxygen, and nitrogen species. In this study, to induce acute inflammation, a single dose of 25 μl of 1% solution of λ-carrageenan was injected subcutaneously into the pad area of the hairless skin on the underside of the left hind paw (FIG. 1A). The injection was performed using a 26-gauge needle targeting the center of the plantar region. The administration of leading compounds and the positive control group, Celebrex, and the negative control saline occurred 10 minutes prior to the λ-carrageenan […] injection. To obtain the anti-inflammatory data, the animal condition was monitored hourly and paw-edema volume and thickness were measured hourly from 0 h to 6 h and again at 24 h, the injection of λ-carrageenan was counted as 0 h (FIG. 1B). After 24 h, local blood was collected from the hind paw of the mice for the next step assay to determine the PGE2 and PGI2 levels. Tissue samples, including the stomach and kidney, were collected after euthanization. The BABL-c mice were arranged into three groups: A. Control (Ctl) group: 50 μl saline; B. 2Me group: 50 mg/kg, 50 ul; C. 3-F group: 50 mg/kg, 50 ul. the CD-1 mice were arranged into 6 groups: A. Control (Ctl) group: saline 50 ul; B. 2-Me group: 50 mg/kg, 50 ul; C. 3-F group: 50 mg/kg, 50 ul; D: 2-Me group: 10 mg/kg, 50 ul; E. 3-F group: 10 mg/kg, 50 ul; F. Celebrex group: 50 mg/kg, 50 ul. Establishing measurements of the carrageenan-induced acute inflammation/edema. […]

[2] = test system: carrageenan-induced paw inflammation; test: Carrageenan-induced paw inflammation/edema in CD-1 mice; assay type: in vivo; conditions: for dose-dependent anti-inflammatory activity, paw thickness: 10 mg/kg vs 50 mg/kg; for dose-dependent anti-inflammatory activity, paw edema volume: 10 mg/kg vs 50 mg/kg, 2, 4 and 6 h; for paw thickness increase / paw volume increase: 50 mg/kg intramuscular, vs control group; for paw volume increase: 50 mg/kg
Method: as §1

[3] = target: T1, COX-2-10aa-mPGES-1 (Homo sapiens, UniProt O14684+P35354); test: Enzymelink COX-2-10aa-mPGES-1 high through-put screening; assay type: biochemical; conditions: cross-filtered between mPGES-1, PGIS and COX-2 with AA as substrate
T1 construct: made in house
T1 sequence (P35354+O14684 with tags, fused parts or gaps): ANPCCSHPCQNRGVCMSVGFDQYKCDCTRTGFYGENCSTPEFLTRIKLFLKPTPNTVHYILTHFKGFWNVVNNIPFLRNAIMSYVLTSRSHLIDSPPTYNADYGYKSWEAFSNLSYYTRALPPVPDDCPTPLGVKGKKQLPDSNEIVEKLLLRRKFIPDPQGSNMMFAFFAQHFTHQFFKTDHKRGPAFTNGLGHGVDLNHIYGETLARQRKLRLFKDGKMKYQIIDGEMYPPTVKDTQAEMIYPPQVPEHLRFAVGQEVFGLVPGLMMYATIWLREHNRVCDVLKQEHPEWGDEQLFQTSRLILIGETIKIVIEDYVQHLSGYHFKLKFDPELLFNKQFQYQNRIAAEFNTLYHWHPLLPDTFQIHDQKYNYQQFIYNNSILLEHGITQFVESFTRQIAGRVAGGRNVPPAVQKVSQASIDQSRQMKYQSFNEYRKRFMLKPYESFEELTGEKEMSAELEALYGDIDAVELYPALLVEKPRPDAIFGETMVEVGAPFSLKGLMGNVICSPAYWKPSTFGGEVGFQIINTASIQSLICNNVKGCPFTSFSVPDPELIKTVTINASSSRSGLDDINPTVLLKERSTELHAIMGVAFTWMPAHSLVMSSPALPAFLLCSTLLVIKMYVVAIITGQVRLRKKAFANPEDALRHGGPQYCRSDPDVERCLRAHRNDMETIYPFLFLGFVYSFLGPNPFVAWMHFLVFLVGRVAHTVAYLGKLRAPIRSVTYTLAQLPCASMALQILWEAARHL
From the text: There is an urgent need for new anti-inflammatory drugs with less the adverse effects in clinical practice. Developing drugs which inhibit mPGES-1 without affecting other COX downstream synthases to only decrease PGE2 level at inflammation site is an ideal therapeutic strategy to treat inflammatory diseases. By successfully establishing a system of single-chain Enzymelinks of the upstream COX-2 and the downstream mPGES-1 thread by a 10 amino acid (AA) bio-linker (COX-2-10aa-mPGES-1 [9,11]), one can mimic endogenous inflammatory PGE2 biosynthesis without affecting COX-2 coupling to other enzyme synthases, for example, PGIS. This kind of Enzymelink has a kinetic advantage for converting the initial substrate, AA, to pro-inflammatory PGE2 via a triple catalytic reaction due to the shorter distance between the catalytic domain of the two enzymes within a single polypeptide chain. By this method, it was possible to reduce the interference with the mPGES-1 inhibitor screen, such as the nonspecific inhibition and cross-inhibition of PGIS, by avoiding the use of the unstable intermediate PGH2 as the initial substrate for PGE2 biosynthesis. At the same time, another Enzymelink, COX-2-10aa-PGIS was established in order to verify that the screen compound will not affect PGI2 synthesis. […]

selectivity for mPGES-1 [3] | SMILES | inflammatory edema (paw volume quantitation) [1] | paw thickness [1] | time course of paw volume [1] | dose-dependent anti-inflammatory activity, paw thickness [2] | dose-dependent anti-inflammatory activity, paw edema volume [2] | paw thickness increase [2] | paw volume increase [2]
highly selective for mPGES-1 | Nc1ccc2oc(-c3ccc(C(F)(F)F)cc3)nc2c1 [3-F] | significantly decreased the inflammatory edema; also recorded: significant effects on reducing the paw edema | significant anti-inflammatory potency | increased during the first 2 hours but decreased within the next 4 hours | improve the anti-inflammatory effects | increasing potent anti-inflammatory effect corresponding with the dosage increase | significantly decrease | significantly decrease; also recorded: significant effects on reducing the paw edema
highly selective for mPGES-1 | CC(C)c1ccc(-c2nc3cc(N)ccc3o2)cc1 [2-Me] | significantly decreased the inflammatory edema; also recorded: significant effects on reducing the paw edema | significant anti-inflammatory potency | increased slightly in the first 4 hours and decreases in the following 2 hours | improve the anti-inflammatory effects | improved its anti-inflammation activity | significantly decrease | significantly decrease; also recorded: significant effects on reducing the paw edema
